Here are results for 15 compounds from patent US20170349532A1, “CATIONIC LIPID” (Kyowa Hakko Kirin Co., Ltd., priority 2011, published 2017).

The nature of the first data set: Average particle diameter of preparation (Zetasizer Nano ZS). It is filed as physicochemical. To be noted: Comparative Examples 1 to 8, prepared as Example 118 with apo-b siRNA. In short, it runs like this: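 Lipid nanoparticles formed by mixing cationic lipid/PEG-DMPE Na/DSPC/cholesterol (8.947/1.059/5.708/13.697 mmol/L in 90% ethanol, 37 °C) with apo-b siRNA in Tris-EDTA/citrate buffer pH 5.0, then diluted with citrate/NaCl pH 6.0 and DPBS to 10 μM siRNA. Mean complex diameter measured by dynamic light scattering.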
With `CCCCCCCC/C=C\CCCCCCCC(=O)O[C@@H]1CN(C)C[C@H]1OC(=O)CCCCCCC/C=C\CCCCCCCC` [Compound A-4, (3R,4R)-1-Methylpyrrolidine-3,4-diyl di((Z)-octadec-9-enoate), reference compound], the “average particle diameter of the complex between the cationic lipis and the nucleic acid in the preparation” value came out at 131.1 nm.

The same data set, now with this note: average particle diameter of cationic lipid/nucleic acid complex; Example 118 preparation: compound/PEG-DMPE Na/DSPC/cholesterol with apo-b siRNA.
Take `CCCCC/C=C\C/C=C\CCCCCCCC(=O)OCCNCCOC(=O)CCCCCCC/C=C\C/C=C\CCCCC` [Compound 74, N,N-bis(2-((9Z,12Z)-Octadec-9,12-dienoyloxy)ethyl)amine]: the “Particle diameter of Preparetion” value amounted to 128.4 nm.
With `CCCCCCCCCCCCCCOCCNCCOCCCCCCCCCCCCCC` [Compound 69, bis(2-(Tetradecyloxy)ethyl)amine], the “Particle diameter of Preparetion” value is reported as 136.8 nm.
In the case of `CCCCCC/C=C\CCCCCCCCOCCN(C)CCOCCCCCCCC/C=C\CCCCCC` [Compound 35, N-Methyl-N,N-bis(2-((Z)-hexadec-9-enyloxy)ethyl)amine], the “Particle diameter of Preparetion” value is reported as 126.5 nm.
The same measure, in the same setting: the value for `CCCCCCCCCCCCCCCCCCOCCNCCOCCCCCCCCCCCCCCCCCC` [Compound 71, bis(2-(Octadecyloxy)ethyl)amine] was 148.4 nm; that for `CCCCCCCC/C=C\CCCCCCCCCCOCCN(C)CCOCCCCCCCCCC/C=C\CCCCCCCC` [Compound 78, N,N-bis(2-((Z)-Icos-11-enyloxy)ethyl)-N-methylamine] was 131.4 nm.
The same measure, in the same setting: next, `CCCCCCCC/C=C\CCCCCCCCOCCN(CCOCCCCCCCC/C=C\CCCCCCCC)CCC(=O)N(C)C` [Compound 85, 3-(bis(2-((2)-Octadec-9-enyloxy)ethyl)amino)-N,N-dimethylpropanamide]: 120.1 nm; `CCCCCCCC/C=C\CCCCCCCCO[C@@H]1CN(C)C[C@H]1OCCCCCCCC/C=C\CCCCCCCC` [Compound 12, (3R,4R)-1-Methyl-3,4-bis((Z)-octadec-9-enyloxy)pyrrolidine]: 161.3 nm.
Consider `CCCCCC/C=C\CCCCCCCCCCO[C@@H]1CN(C)C[C@H]1OCCCCCCCCCC/C=C\CCCCCC` [Compound 48, (3R,4R)-1-Methyl-3,4-bis((Z)-octadec-11-enyloxy)pyrrolidine], for which the “Particle diameter of Preparetion” value is on record as 135.0 nm.
Still for that read-out and setting: next, `CCCCC/C=C\C/C=C\CCCCCCCCCCO[C@@H]1CNC[C@H]1OCCCCCCCCCC/C=C\C/C=C\CCCCC` [Compound 8, (3R,4R)-3,4-bis((11Z,14Z)-Icos-11,14-dienyloxy)pyrrolidine]: 143.8 nm; `CCCCCCCC/C=C\CCCCCCCCCCO[C@@H]1CN(C)C[C@H]1OCCCCCCCCCC/C=C\CCCCCCCC` [Compound 49, (3R,4R)-3,4-bis((Z)-Icos-11-enyloxy)-1-methylpyrrolidine]: 141.7 nm; `CCCCC/C=C\C/C=C\CCCCCCCC(=O)O[C@@H]1C[N+](C)(C)C[C@H]1OC(=O)CCCCCCC/C=C\C/C=C\CCCCC.[Cl-]` [Compound 20, (3R,4R)-1,1-Dimethyl-3,4-bis((9Z,12Z)-octadec-9,12-dienoyloxy)pyrrolidinium chloride]: 107.5 nm.
As to `CCCCCCCC/C=C\CCCCCCCC(=O)O[C@@H]1C[N+](C)(C)C[C@H]1OC(=O)CCCCCCC/C=C\CCCCCCCC.[Cl-]` [Compound 23, (3R,4R)-1,1-Dimethyl-3,4-bis((Z)-octadec-9-enoyloxy)pyrrolidinium chloride], the “Particle diameter of Preparetion” value is listed as 108.7 nm.
Regarding `CCCCC/C=C\C/C=C\CCCCCCCCO[C@@H]1CN(C(=O)CN(C)C)C[C@H]1OCCCCCCCC/C=C\C/C=C\CCCCC` [Compound 25, (3R,4R)-1-(2-(Dimethylamino)acetyl)-3,4-bis((9Z,12Z)-octadec-9,12-dienyloxy)pyrrolidine], the “Particle diameter of Preparetion” value was determined as 126.0 nm.
Take `CCCCCCCC/C=C\CCCCCCCCO[C@@H]1CN(CC)C[C@H]1OCCCCCCCC/C=C\CCCCCCCC` [Compound 18, (3R,4R)-1-Ethyl-3,4-bis((Z)-octadec-9-enyloxy)pyrrolidine]: the “Particle diameter of Preparetion” value worked out at 146.4 nm.
